The target of the assay is T1, slc26a2 (Mus musculus, UniProt Q62273).
T1 construct: Full -length slc26a2 cDNAs; expressed in transfected cells; host or cells: 293 T/17 cells, transient transfection with pIRES-HIF vector (IRES-YFP, not fused)
T1 sequence (Q62273 1-739): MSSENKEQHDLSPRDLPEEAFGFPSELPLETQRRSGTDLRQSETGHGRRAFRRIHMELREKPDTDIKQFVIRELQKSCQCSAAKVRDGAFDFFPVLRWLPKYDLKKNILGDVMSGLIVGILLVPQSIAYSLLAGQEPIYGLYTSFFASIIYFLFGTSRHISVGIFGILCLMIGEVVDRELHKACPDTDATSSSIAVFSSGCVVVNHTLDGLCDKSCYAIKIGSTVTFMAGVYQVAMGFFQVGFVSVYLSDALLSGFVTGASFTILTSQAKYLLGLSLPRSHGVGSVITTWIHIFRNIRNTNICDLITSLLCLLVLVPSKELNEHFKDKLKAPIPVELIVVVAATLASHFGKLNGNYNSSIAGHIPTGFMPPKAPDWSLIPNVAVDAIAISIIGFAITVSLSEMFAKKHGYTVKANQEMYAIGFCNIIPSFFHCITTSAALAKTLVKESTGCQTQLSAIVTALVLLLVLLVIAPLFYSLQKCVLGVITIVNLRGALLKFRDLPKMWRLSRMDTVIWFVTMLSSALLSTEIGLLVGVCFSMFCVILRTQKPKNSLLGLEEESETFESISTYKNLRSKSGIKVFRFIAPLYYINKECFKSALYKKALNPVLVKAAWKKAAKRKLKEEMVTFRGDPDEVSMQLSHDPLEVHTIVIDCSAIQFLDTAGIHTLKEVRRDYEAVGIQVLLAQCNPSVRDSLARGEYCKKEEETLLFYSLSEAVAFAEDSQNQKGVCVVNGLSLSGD
Put plainly: Selectivity: Cl-/I- exchange in 293T/17 cells transfected with slc26a2 and YFP. The format is cell-based. The following applies: 25 μM, 10 min preincubation. How it is done: YFP-based cellular assays of slc26a3, slc26a4, SLC26A9, and TMEM16A function were performed as described previously ([7]). Slc26a1 and slc26a2 assays were done in transfected HEK 293 cells (see Supplemental Methods for details). Niflumic acid was used as a positive control for SLC26A isoforms ([7]). For TMEM16A, the selective small-molecule inhibitor TMinh-23 was used as a positive control ([28]). The activities of ENaC, CFTR, and CaCC were determined using well-differentiated HBE cells as described previously ([13]). Cl^–/HCO3^– exchange was measured as described previously ([7], [10], [11]). Briefly, cell cytoplasm was labeled with the pH-sensitive fluorescent dye BCECF-AM (Invitrogen), and Cl^–/HCO3^– exchange was measured in response to addition of a gluconate-containing solution to drive exchange of cytoplasmic Cl^– for extracellular HCO3^–, producing cytoplasmic alkalinization.
Slc26a1 and slc26a2 cDNA constructs
The complementar y DNA sequences of slc26a1 and slc26a2 were generated using gB LOCK gene fragments (Int egrat ed DNA technology, Coralville, IA) in the plasmid vector pIRESpuro3 (Takara, San J ose, CA). […]
PBS. […] Background-corrected, area-integrat ed single cell fluorescence was calcul ated for determination of slc26a1 / slc26a2 activit y from the rate of fluorescence quenching. […]

Turning to `Cc1c(Br)c(C(F)(F)F)nn1CC(=O)N1CCc2nc3cc(-c4ccccc4)[nH]n3c(=O)c2C1` [PAT1inh-B01], the “effect on slc26a2 activity” value is given as “did not affect”.

Source of the values: PMC8262356, “SLC26A6-selective inhibitor identified in a small-molecule screen blocks fluid absorption in small intestine” (JCI Insight, 2021).
